Read-outs that look alike come from different tables or passages of the source.
How the values were obtained:
Format in all cases: in vivo
Cochliobolus sativus = assay: Spot Blotch of Wheat (COCHSA), foliar spray, percent disease control
[1] = test system: Pseudoperonospora cubensis; assay: Cucumber Downy Mildew (PSPECU), foliar spray, percent disease control; settings: read-out: PSPECU percent control
[2] = test system: DROSME, AEDSAE, LAPHEG, or HELIVI; assay: Insecticidal activity, active if any of DROSME, AEDSAE, LAPHEG or HELIVI was controlled at 80% or more; settings: read-out: >80% mortality on any insect species @ 4000 ppm
Colletotricum lagenarium = assay: Cucumber Anthracnose (COLLLA), foliar spray, percent disease control
[3] = Bipolaris sorokiniana, foliar; read-out: COCHSA percent control
[4] = Bipolaris sorokiniana; foliar spray; read-out: COCHSA percent control

Structure (SMILES) | pest or weed control at 200 µg/mL (Cochliobolus sativus; [3]) [%] | pest or weed control at 200 µg/mL ([1]; foliar) [%] | pest or weed control at 4000 ppm [2] [%] | pest or weed control at 200 µg/mL (Colletotricum lagenarium; foliar) [%] | pest or weed control at 200 µg/mL (Cochliobolus sativus; [4]) [%] | pest or weed control at 200 µg/mL ([1]; foliar spray) [%] | pest or weed control at 200 µg/mL (Colletotricum lagenarium; foliar spray) [%] | pest or weed control at 200 µg/mL (Cochliobolus sativus; Bipolaris sorokiniana, foliar, read-out: COCHSA percent control) [%]
N#Cc1ccc(Oc2ccc(CCNc3ncnc4nccnc34)cc2)nc1 [Compound 14] | 0 to 49 | 80 to 100 | > 80 | 0 to 49 |  |  |  | 
Cc1c(CCNc2ncnc3nccnc23)ccc(Oc2ccc(C(F)(F)F)cn2)c1C [Compound 144] | 0 to 49 | 80 to 100 | > 80 | 0 to 49 |  |  |  | 
Fc1cc(C(F)(F)F)ccc1Oc1ccc(CCNc2ncnc3nccnc23)cc1 [Compound 113] | 0 to 49 | 80 to 100 | > 80 | 0 to 49 |  |  |  | 
FC(F)(F)c1ccc(Oc2ccc(OCCNc3ncnc4nccnc34)cc2)nc1 [Compound 84] | 0 to 49 | 80 to 100 | > 80 | 80 to 100 |  |  |  | 
Fc1cc(F)c(Oc2ccc(CCNc3ncnc4nccnc34)cc2)nc1F [Compound 150] | 0 to 49 | 80 to 100 | > 80 | 0 to 49 |  |  |  | 
Cc1nc(NCCc2ccc(Oc3cc(C(F)(F)F)ccn3)cc2)c2nc(C)c(C)nc2n1 [Compound 215] |  |  | > 80 |  | 0 to 49 | 80 to 100 | 0 to 49 | 
Cc1cnc2ncnc(NCCc3ccc(Oc4cncc(Cl)c4C#N)cc3)c2n1 [Compound 120] | 0 to 49 | 0 to 49 | > 80 | 0 to 49 |  |  |  | 
FC(F)(F)c1nc(Oc2ccc(CCNc3ncnc4nccnc34)cc2)ccc1Cl [Compound 92] | 0 to 49 | 80 to 100 | > 80 | 0 to 49 |  |  |  | 
Fc1cnc(Oc2ccc(CCNc3ncnc4nccnc34)cc2)c(F)c1C(F)(F)F [Compound 106] | 0 to 49 | 80 to 100 | > 80 | 0 to 49 |  |  |  | 
c1ccc(COc2ccc(CCOc3ccc(CCNc4ncnc5nccnc45)cc3)cc2)cc1 [Compound 140, (2-{4-[2-(4-Benzyloxy-phenyl)-ethoxy]-phenyl}-ethyl)-pteridin-4-yl-amine] | 0 to 49 | 80 to 100 | > 80 | 50 to 79 |  |  |  | 
Fc1cc(Oc2ncc(C(F)(F)F)cc2F)ccc1CCNc1ncnc2nccnc12 [Compound 114] | 0 to 49 | 80 to 100 | > 80 | 0 to 49 |  |  |  | 
c1ccc(-c2ccc(CCNc3ncnc4nccnc34)cc2)cc1 [Compound 125] |  | 80 to 100 | > 80 | 50 to 79 |  |  |  | 0 to 49
COc1cc(CCNc2ncnc3nccnc23)ccc1Oc1cc(C(C)C)ccn1 [Compound 204] |  |  | > 80 |  | 0 to 49 | 80 to 100 | 0 to 49 | 
FC(F)(F)c1ccnc(Oc2ccc(CCNc3ncnc4nccnc34)cc2)c1 [Compound 2, pteridin-4-yl-{2-[4-(4-trifluoromethylpyridin-2-yloxy)-phenyl]-ethyl}-amine] | 50 to 79 | 80 to 100 | > 80 | 80 to 100 |  |  |  | 
Cc1ccc(Oc2ccc(CCNc3ncnc4nccnc34)cc2)cc1 [Compound 136] | 0 to 49 | 80 to 100 | > 80 | 50 to 79 |  |  |  | 
COc1cc(CCNc2ncnc3nccnc23)ccc1Oc1ncc(C(F)(F)F)cc1F [Compound 130] | 0 to 49 | 80 to 100 | > 80 | 0 to 49 |  |  |  | 
FC(F)(F)c1ccncc1Oc1ccc(CCNc2ncnc3nccnc23)cc1 [Compound 111] | 0 to 49 | 80 to 100 | > 80 | 50 to 79 |  |  |  | 
CC(=O)Oc1cc(CCNc2ncnc3nccnc23)ccc1Oc1cc(C(F)(F)F)ccn1 [Compound 190, Acetic acid 5-[2-(pteridin-4-ylamino)-ethyl]-2-(4-trifluoromethylpyridin-2-yloxy)-phenyl ester] | 0 to 49 | 0 to 49 | > 80 | 0 to 49 |  |  |  | 
FC(F)(F)c1ccc(Oc2ccc(CCNc3ncnc4nccnc34)cn2)cc1 [Compound 126] | 0 to 49 | 80 to 100 | > 80 | 80 to 100 |  |  |  | 
COc1cc(CCNc2ncnc3nccnc23)ccc1Oc1ccc(C#N)cn1 [Compound 50] | 0 to 49 | 80 to 100 | > 80 | 0 to 49 |  |  |  | 

Structure (SMILES) | pest or weed control at 200 µg/mL (Cochliobolus sativus; [3]) [%] | pest or weed control at 200 µg/mL ([1]; foliar) [%] | pest or weed control at 4000 ppm [2] [%] | pest or weed control at 200 µg/mL (Colletotricum lagenarium; foliar) [%] | pest or weed control at 200 µg/mL (Cochliobolus sativus; [4]) [%] | pest or weed control at 200 µg/mL ([1]; foliar spray) [%] | pest or weed control at 200 µg/mL (Colletotricum lagenarium; foliar spray) [%] | pest or weed control at 200 µg/mL (Cochliobolus sativus; Bipolaris sorokiniana, foliar, read-out: COCHSA percent control) [%]
FC(F)(F)COc1ccnc(Oc2ccc(CCNc3ncnc4nccnc34)cc2)c1 [Compound 96, Pteridin-4-yl-(2-{4-[4-(2,2,2-trifluoroethoxy)-pyridin-2-yloxy]-phenyl}-ethyl)-amine] | 0 to 49 | 80 to 100 | > 80 | 0 to 49 |  |  |  | 
Cc1nc(NCCc2ccc(Oc3ncc(C(F)(F)F)cc3F)cc2)c2nc(C)c(C)nc2n1 [Compound 214] |  |  | > 80 |  | 0 to 49 | 0 to 49 | 0 to 49 | 
Cc1cccc(Oc2ccc(CCNc3ncnc4nccnc34)cc2)n1 [Compound 39] | 0 to 49 | 80 to 100 | > 80 | 0 to 49 |  |  |  | 
Fc1cnc(Oc2ccc(CCNc3ncnc4nccnc34)cc2)c(F)c1 [Compound 107] | 0 to 49 | 80 to 100 | > 80 | 0 to 49 |  |  |  | 
Fc1cccc(Oc2ccc(CCNc3ncnc4nccnc34)cc2)c1C(F)(F)F [Compound 216] |  |  | > 80 |  | 0 to 49 | 80 to 100 | 0 to 49 | 
FC(F)(F)c1ccnc(Oc2ccc(CCNc3ncnc4nccnc34)cc2Cl)c1 [Compound 187] | 0 to 49 | 80 to 100 | > 80 | 80 to 100 |  |  |  | 
Fc1cc(Oc2cc(C(F)(F)F)ccn2)ccc1CCNc1ncnc2nccnc12 [Compound 103] | 0 to 49 | 80 to 100 | > 80 | 0 to 49 |  |  |  | 
Fc1nc(Oc2ccc(CCNc3ncnc4nccnc34)cc2)c(F)c(C(F)(F)F)c1F [Compound 138, Pteridin-4-yl-{2-[4-(3,5,6-trifluoro-4-trifluoromethyl-pyridin-2-yloxy)-phenyl]-ethyl}-amine] | 0 to 49 | 80 to 100 | > 80 | 80 to 100 |  |  |  | 
Cc1cccnc1Oc1ccc(CCNc2ncnc3nccnc23)cc1 [Compound 43] | 0 to 49 | 80 to 100 | > 80 | 0 to 49 |  |  |  | 
FC(F)(F)c1ccnc(Oc2ccc(CCNc3ncnc4ncc(Cl)nc34)cc2)n1 [Compound 75] | 0 to 49 | 0 to 49 | > 80 | 0 to 49 |  |  |  | 
FC(F)(F)c1nc(Oc2ccc(CCNc3ncnc4nccnc34)cc2)sc1Cl [Compound 128] | 0 to 49 | 80 to 100 | > 80 | 0 to 49 |  |  |  | 
N#Cc1cc2ccccc2nc1Oc1ccc(CCNc2ncnc3nccnc23)cc1 [Compound 127] | 0 to 49 | 50 to 79 |  | 0 to 49 |  |  |  | 
COc1cc(C(F)(F)F)cc(Oc2cc(C)c(CCNc3ncnc4nccnc34)cc2C)n1 [Compound 179] | 0 to 49 | 0 to 49 |  | 0 to 49 |  |  |  | 
COc1cc(CCNc2ncnc3nccnc23)cc(OC)c1Oc1cc(C(F)(F)F)ccn1 [Compound 186] | 0 to 49 | 80 to 100 |  | 0 to 49 |  |  |  | 
FC(F)(F)c1cccnc1Oc1ccc(OCCNc2ncnc3nccnc23)cc1 [Compound 160] | 0 to 49 | 80 to 100 |  | 0 to 49 |  |  |  | 
CC(C)OC(=O)c1ccnc(Oc2ccc(CCNc3ncnc4nccnc34)cc2)c1 [Compound 173] | 0 to 49 | 80 to 100 |  | 0 to 49 |  |  |  | 
CC(C)Oc1cc(CCNc2ncnc3nccnc23)ccc1Oc1cc(C(C)(F)F)ccn1 [Compound 195] | 0 to 49 | 80 to 100 |  | 50 to 79 |  |  |  | 
COc1cc(C(F)(F)F)cc(Oc2ccc(CCNc3ncnc4nccnc34)cc2)n1 [Compound 171] | 0 to 49 | 80 to 100 |  | 0 to 49 |  |  |  | 
CC(C)(C)COC(=O)c1ccnc(Oc2ccc(CCNc3ncnc4nccnc34)cc2)c1 [Compound 182] | 0 to 49 | 80 to 100 |  | 0 to 49 |  |  |  | 

From patent US8895568B2, “Compositions comprising substituted pteridines as agrochemicals” (Dow AgroSciences LLC, priority 2009, dated 2014)
